Results published in PubChem BioAssay AID1963845 (Molecular Pharmacology Branch, DTP, NCI, 2024).

Tested on: 429239-143-T-J1-PDC complex spheroid viability
Assay: Anticancer human tumor 429239-143-T-J1-PDC patient-derived small cell lung carcinoma cell line growth inhibition [POLQ]
Details: for IC50: curve of first compound; for viability, T/C: stronger effect = lower value
In short: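 Three-cell-type spheroids modelling solid tumor plus stroma served as the readout system; POL inhibitors were tested individually and in combination, concentration ranges set by clinical Cmax where known.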

[1] = second compound 0.0316 µM, first compound 0.0316 µM
[2] = second compound 0.0316 µM, first compound 0.1 µM
[3] = second compound 0.0316 µM, first compound 0.316 µM
[4] = second compound 0.0316 µM, first compound 1 µM
[5] = second compound 0.0316 µM, first compound 3.16 µM
[6] = second compound 0.0316 µM, first compound 10 µM
[7] = second compound 0.1 µM, first compound 0.0316 µM
[8] = second compound 0.1 µM, first compound 0.1 µM
[9] = second compound 0.1 µM, first compound 0.316 µM
[10] = second compound 0.1 µM, first compound 1 µM
[11] = second compound 0.1 µM, first compound 3.16 µM
[12] = second compound 0.1 µM, first compound 10 µM
[13] = second compound 0.316 µM, first compound 0.0316 µM
[14] = second compound 0.316 µM, first compound 0.1 µM
[15] = second compound 0.316 µM, first compound 0.316 µM
[16] = second compound 0.316 µM, first compound 1 µM
[17] = second compound 0.316 µM, first compound 3.16 µM
[18] = second compound 0.316 µM, first compound 10 µM
[19] = second compound 1 µM, first compound 0.0316 µM
[20] = second compound 1 µM, first compound 0.1 µM
[21] = second compound 1 µM, first compound 0.316 µM
[22] = second compound 1 µM, first compound 1 µM
[23] = second compound 1 µM, first compound 3.16 µM
[24] = second compound 1 µM, first compound 10 µM
[25] = second compound 3.16 µM, first compound 0.0316 µM
[26] = second compound 3.16 µM, first compound 0.1 µM
[27] = second compound 3.16 µM, first compound 0.316 µM
[28] = second compound 3.16 µM, first compound 1 µM
[29] = second compound 3.16 µM, first compound 3.16 µM
[30] = second compound 3.16 µM, first compound 10 µM
[31] = second compound 10 µM, first compound 0.0316 µM
[32] = second compound 10 µM, first compound 0.1 µM
[33] = second compound 10 µM, first compound 0.316 µM
[34] = second compound 10 µM, first compound 1 µM
[35] = second compound 10 µM, first compound 3.16 µM
[36] = second compound 10 µM, first compound 10 µM
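Also: luminescence signal used as surrogate measure of viable cells; spheroids exposed to compounds for seven days before readout.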
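For viability, T/C in this document: 100% = DMSO vehicle control viability as luminescence relative to vehicle.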

SMILES: O=C(c1cc(Cc2n[nH]c(=O)c3ccccc23)ccc1F)N1CCN(C(=O)C2CC2)CC1 + Cc1cccc(N(C)C(=O)C2C(O)CCN2c2nc(C)cc(C(F)(F)F)c2C#N)c1
- IC50 (second compound 0.0316 µM): 1.57 µM
- IC50 (second compound 0.1 µM): 1.46 µM
- IC50 (second compound 0.316 µM): 1.65 µM
- IC50 (second compound 1 µM): 1.75 µM
- IC50 (second compound 3.16 µM): 1.88 µM
- IC50 (second compound 10 µM): 1.5 µM
- viability, T/C [1]: 104%
- viability, T/C [2]: 84.5%
- viability, T/C [3]: 82.9%
- viability, T/C [4]: 65.4%
- viability, T/C [5]: 28.9%
- viability, T/C [6]: 19.9%
- viability, T/C [7]: 85.1%
- viability, T/C [8]: 81.3%
- viability, T/C [9]: 78%
- viability, T/C [10]: 55.8%
- viability, T/C [11]: 35.3%
- viability, T/C [12]: 17.9%
- viability, T/C [13]: 94.2%
- viability, T/C [14]: 82.5%
- viability, T/C [15]: 81.9%
- viability, T/C [16]: 61.3%
- viability, T/C [17]: 35%
- viability, T/C [18]: 18.7%
- viability, T/C [19]: 83.5%
- viability, T/C [20]: 78.9%
- viability, T/C [21]: 80.6%
- viability, T/C [22]: 63.4%
- viability, T/C [23]: 35.5%
- viability, T/C [24]: 18.6%
- viability, T/C [25]: 92.6%
- viability, T/C [26]: 78.7%
- viability, T/C [27]: 81.5%
- viability, T/C [28]: 66.3%
- viability, T/C [29]: 36.5%
- viability, T/C [30]: 21%
- viability, T/C [31]: 89.5%
- viability, T/C [32]: 91.9%
- viability, T/C [33]: 70.9%
- viability, T/C [34]: 58.2%
- viability, T/C [35]: 37%
- viability, T/C [36]: 18.7%

SMILES: COc1cc2cc(C(=O)CCC(=O)O)sc2cc1OC + COC1C(OC(N)=O)C(O)C(Oc2ccc3c(O)c(NC(=O)c4ccc(O)c(CC=C(C)C)c4)c(=O)oc3c2C)OC1(C)C
- IC50 (second compound 0.0316 µM): > 10 µM
- IC50 (second compound 0.1 µM): > 10 µM
- IC50 (second compound 0.316 µM): > 10 µM
- IC50 (second compound 1 µM): > 10 µM
- IC50 (second compound 3.16 µM): > 10 µM
- IC50 (second compound 10 µM): > 10 µM
- viability, T/C [1]: 113%
- viability, T/C [2]: 95.9%
- viability, T/C [3]: 112%
- viability, T/C [4]: 105%
- viability, T/C [5]: 92.1%
- viability, T/C [6]: 92.4%
- viability, T/C [7]: 116%
- viability, T/C [8]: 104%
- viability, T/C [9]: 93.7%
- viability, T/C [10]: 100%
- viability, T/C [11]: 91.2%
- viability, T/C [12]: 92.6%
- viability, T/C [13]: 103%
- viability, T/C [14]: 99.3%
- viability, T/C [15]: 92.6%
- viability, T/C [16]: 107%
- viability, T/C [17]: 95.1%
- viability, T/C [18]: 90.2%
- viability, T/C [19]: 96.1%
- viability, T/C [20]: 91.1%
- viability, T/C [21]: 108%
- viability, T/C [22]: 90.9%
- viability, T/C [23]: 90.6%
- viability, T/C [24]: 102%
- viability, T/C [25]: 94.7%
- viability, T/C [26]: 112%
- viability, T/C [27]: 103%
- viability, T/C [28]: 89.4%
- viability, T/C [29]: 96%
- viability, T/C [30]: 101%
- viability, T/C [31]: 95.9%
- viability, T/C [32]: 91.7%
- viability, T/C [33]: 119%
- viability, T/C [34]: 96.6%
- viability, T/C [35]: 94.3%
- viability, T/C [36]: 95.7%

SMILES: C=CC(=O)N1CCN(c2nc(=O)n(-c3c(C)ccnc3C(C)C)c3nc(-c4c(O)cccc4F)c(F)cc23)C(C)C1 (stereo unspecified) + Cc1cccc(N(C)C(=O)C2C(O)CCN2c2nc(C)cc(C(F)(F)F)c2C#N)c1
- IC50 (second compound 0.0316 µM): > 10 µM
- IC50 (second compound 0.1 µM): > 10 µM
- IC50 (second compound 0.316 µM): > 10 µM
- IC50 (second compound 1 µM): > 10 µM
- IC50 (second compound 3.16 µM): > 10 µM
- IC50 (second compound 10 µM): > 10 µM
- viability, T/C [1]: 97.2%
- viability, T/C [2]: 85%
- viability, T/C [3]: 102%
- viability, T/C [4]: 97.5%
- viability, T/C [5]: 96%
- viability, T/C [6]: 98.7%
- viability, T/C [7]: 93.2%
- viability, T/C [8]: 96.8%
- viability, T/C [9]: 108%
- viability, T/C [10]: 89.8%
- viability, T/C [11]: 92.9%
- viability, T/C [12]: 109%
- viability, T/C [13]: 105%
- viability, T/C [14]: 94.3%
- viability, T/C [15]: 107%
- viability, T/C [16]: 97.8%
- viability, T/C [17]: 108%
- viability, T/C [18]: 116%
- viability, T/C [19]: 88.8%
- viability, T/C [20]: 93.4%
- viability, T/C [21]: 104%
- viability, T/C [22]: 88.5%
- viability, T/C [23]: 103%
- viability, T/C [24]: 104%
- viability, T/C [25]: 95.5%
- viability, T/C [26]: 88%
- viability, T/C [27]: 86.6%
- viability, T/C [28]: 101%
- viability, T/C [29]: 104%
- viability, T/C [30]: 122%
- viability, T/C [31]: 98.8%
- viability, T/C [32]: 85.3%
- viability, T/C [33]: 94.4%
- viability, T/C [34]: 97.9%
- viability, T/C [35]: 102%
- viability, T/C [36]: 100%
